Laboratory results taken from patent publication US12492173B2, “Herbicidal substituted N-tetrazolyl aryl carboxamides” (Bayer Aktiengesellschaft, priority 2019, dated 2025).

Tests used:
Format in all cases: in vivo
Lolium rigidum = assay: Pre-emergence herbicidal action, LOLRI; conditions: dosage 320 g/ha, scored visually after 3 weeks vs untreated controls (100% = plants have died)
From the text: (§1) 1. Pre-Emergence Herbicidal Action Against Harmful Plants Seeds of monocotyledonous and dicotyledonous weed plants and crop plants are laid out in sandy loam soil in wood-fiber pots and covered with soil. The compounds of the invention, formulated in the form of wettable powders (WP) or as emulsion concentrates (EC), are then applied to the surface of the covering soil in the form of an aqueous suspension or emulsion at a water application rate equating to 600 to 800 l/ha, with addition of 0.2% wetting agent. After the treatment, the pots are placed in a greenhouse and kept under good growth conditions for the trial plants. The damage to the test plants is scored visually after a test period of 3 weeks by comparison with untreated controls (herbicidal activity in percent (%): 100% activity=the plants have died, 0% activity=like control plants). […] The tables below illustrate, in an exemplary manner, the […] herbicidal action of the compounds according to the invention, the herbicidal activity being stated in percent. [table] In the experiments that follow, herbicidal action of numerous inventive compounds and the known compounds that are structurally closest from D1 (WO 2012/028579 A1) and D2 (WO 2018/202535 A1) were compared under the above-specified conditions by the pre-emergence and post-emergence method. The example numbers given in the tables relate to the compounds disclosed in the respective documents. In addition to the compounds disclosed in D1 and D2, the following compounds V-1 to V-14 that are encompassed by D1 or D2 but are not compounds specified therein were used in the comparative experiments: • V-1: 2-(methylsulfanyl)-3-(methylsulfinyl)-N-(1-methyl-1H-tetrazol-5-yl)-4-(trifluoromethyl)benzamide • V-2: 2-(methylsulfanyl)-3-(methylsulfonyl)-N-(1-methyl-1H-tetrazol-5-yl)-4-(trifluoromethyl)benzamide • V-3: 2,3-bis(ethylsulfanyl)-N-(1-methyl-1H-tetrazol-5-yl)-4-(trifluoromethyl)benzamide • V-4: 2-chloro-3-(ethylsulfanyl)-N-(1-methyl-1H-tetrazol-5-yl)-4-(trifluoromethyl)benzamide • V-5: 2-chloro-4-iodo-3-(methylsulfanyl)-N-(1-methyl-1H-tetrazol-5-yl)benzamide • V-6: 2-chloro-4-iodo-3-(methylsulfinyl)-N-(1-methyl-1H-tetrazol-5-yl)benzamide • V-7: 2-chloro-4-iodo-3-(methylsulfonyl)-N-(1-methyl-1H-tetrazol-5-yl)benzamide • V-8: 2-bromo-3-(methylsulfanyl)-N-(1-methyl-1H-tetrazol-5-yl)-4-(trifluoromethyl)benzamide • V-9: 2-bromo-3-(methylsulfinyl)-N-(1-methyl-1H-tetrazol-5-yl)-4-(trifluoromethyl)benzamide • V-10: 2-bromo-3-(methylsulfonyl)-N-(1-methyl-1H-tetrazol-5-yl)-4-(trifluoromethyl)benzamide • V-11: 2-bromo-3-(ethylsulfanyl)-N-(1-methyl-1H-tetrazol-5-yl)-4-(trifluoromethyl)benzamide • V-12: 2-bromo-3-(ethylsulfinyl)-N-(1-methyl-1H-tetrazol-5-yl)-4-(trifluoromethyl)benzamide • V-13: 2-bromo-3-(ethylsulfonyl)-N-(1-methyl-1-1H-tetrazol-5-yl)-4-(trifluoromethyl)benzamide • V-14: 2-cyclopropyl-3-(ethylsulfanyl)-N-(1-methyl-1H-tetrazol-5-yl)-4-(trifluoromethyl)benzamide Herbicidal Pre-Emergence Action: […]

Polygonum convolvulus = assay: Pre-emergence herbicidal action, POLCO; conditions: for herbicidal activity POLCO: dosage 320 g/ha, scored visually after 3 weeks vs untreated controls (100% = plants have died); for Herbicidal action against POLCO: comparative experiment, 20 g of a.i./ha
Procedure, shortened: (§2)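 Greenhouse pre-emergence test: formulated compound (WP or EC) applied in water to the soil covering sown seeds, 600–800 l/ha, 0.2% wetting agent. Scored visually in percent at 3 weeks versus untreated plants.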

Viola tricolor = assay: Post-emergence herbicidal action, VIOTR; parameters: key: % herbicidal action vs untreated; 100 = plants died, 0 = like control
Procedure, shortened: (§3)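 Values are visual estimates of herbicidal action, from 0% (as untreated) to 100% (dead), made about 3 weeks after plants at one-leaf stage in sandy loam were sprayed with the formulated compound.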

Stellaria media [1] = assay: Post-emergence herbicidal action, STEME; parameters: key: % herbicidal action vs untreated; 100 = plants died, 0 = like control
Procedure, shortened: as §3

Stellaria media [2] = assay: Pre-emergence herbicidal action, STEME; parameters: key to Herbicidal action against STEME: % activity: 100 = plants have died, 0 = like control plants; conditions: for herbicidal activity STEME: dosage 320 g/ha, scored visually after 3 weeks vs untreated controls (100% = plants have died); for Herbicidal action against STEME: comparative experiment, 20 g of a.i./ha
Procedure, shortened: as §2

Cyperus esculentus = assay: Post-emergence herbicidal action, CYPES; parameters: key: % herbicidal action vs untreated; 100 = plants died, 0 = like control
Procedure, shortened: as §3

Lolium multiflorum = assay: Pre-emergence herbicidal action, LOLMU; conditions: dosage 320 g/ha, scored visually after 3 weeks vs untreated controls (100% = plants have died)
From the text: as §1

[3] = comparative experiment, post-emergence, 5 g of a.i./ha

| SMILES | herbicidal activity LOLRI (Lolium rigidum) [%] | herbicidal activity POLCO (Polygonum convolvulus) [%] | herbicidal action VIOTR (Viola tricolor; post-emergence, dosage 80 g/ha) [%] | herbicidal action STEME (Stellaria media [1]; post-emergence, dosage 80 g/ha) [%] | herbicidal activity STEME (Stellaria media [2]) [%] | herbicidal action CYPES (Cyperus esculentus; post-emergence, dosage 80 g/ha) [%] | herbicidal action VIOTR (Viola tricolor; Dosage 80 g/ha) | herbicidal action STEME (Stellaria media [1]; Dosage 80 g/ha) | Herbicidal action against STEME (Stellaria media [2]) | Herbicidal action against POLCO (Polygonum convolvulus) | herbicidal action CYPES (Cyperus esculentus; Dosage 80 g/ha) | Herbicidal action against STEME (Stellaria media [1]; [3]) | Herbicidal action against CYPES (Cyperus esculentus; [3]) | herbicidal activity LOLMU (Lolium multiflorum) [%] |
| --- | --- | --- | --- | --- | --- | --- | --- | --- | --- | --- | --- | --- | --- | --- |
| CC[S+]([O-])Cc1c(C(F)(F)F)ccc(C(=O)Nc2nnnn2C)c1Cl (racemic) [Example 1-300] | 100 | 100 | 100 | 100 | 100 | – | – | – | – | – | – | – | – | – |
| Cn1nnnc1NC(=O)c1ccc(C(F)(F)F)c(C[S+]([O-])C2CC2)c1Cl (racemic) [Example 1-303] | 100 | 100 | 100 | 100 | 100 | 80 | – | – | – | – | – | – | – | – |
| COCC[S+]([O-])Cc1c(C(F)(F)F)ccc(C(=O)Nc2nnnn2C)c1Cl (racemic) [Example 1-306] | 90 | 80 | – | – | 100 | – | 100 | 90 | – | – | – | – | – | – |
| Cn1nnnc1NC(=O)c1ccc(C(F)(F)F)c(C[S+]([O-])CC(F)(F)F)c1Cl (racemic) [Example 1-312] | 90 | 90 | 100 | 100 | 100 | – | – | – | – | – | – | – | – | – |
| Cn1nnnc1NC(=O)c1ccc(I)c(C[S+](C)[O-])c1Cl (racemic) [Example 1-363] | 100 | 90 | 100 | 100 | 100 | – | – | – | 100 | – | – | – | – | – |
| CSc1c(C(=O)Nc2nnnn2C)ccc(C(F)(F)F)c1C[S+](C)[O-] (stereo not drawn) [Example 1-162] | 90 | 100 | 100 | 100 | 100 | 80 | – | – | – | 80 | – | – | – | – |
| Cn1nnnc1NC(=O)c1ccc(C(F)(F)F)c(CSC2CC2)c1Cl [Example 1-302] | 100 | 100 | 100 | 100 | 100 | 80 | – | – | – | – | – | – | – | – |
| Cn1nnnc1NC(=O)c1ccc(C(F)(F)F)c(CS(=O)(=O)C2CC2)c1Cl [Example 1-304] | 100 | 100 | 100 | 100 | 100 | 90 | – | – | – | – | – | – | – | – |
| COCCSCc1c(C(F)(F)F)ccc(C(=O)Nc2nnnn2C)c1Cl [Example 1-305] | 90 | – | 100 | 100 | 100 | 90 | – | – | – | – | – | – | – | – |
| Cn1nnnc1NC(=O)c1ccc(C(F)(F)F)c(CSCC(F)(F)F)c1Cl [Example 1-311] | 100 | – | – | – | 100 | – | 100 | 100 | – | – | 100 | – | – | – |
| Cn1nnnc1NC(=O)c1ccc(C(F)(F)F)c(CSCC2CC2)c1Cl [Example 1-314] | 100 | 100 | 100 | 100 | 90 | 80 | – | – | – | – | – | – | – | – |
| Cn1nnnc1NC(=O)c1ccc(C(F)(F)F)c(CS(=O)(=O)CC2CC2)c1Cl [Example 1-316] | 90 | 100 | – | – | 100 | – | 100 | 100 | – | – | – | – | – | – |
| CSCc1c(I)ccc(C(=O)Nc2nnnn2C)c1Cl [Example 1-362] | 80 | – | 100 | 100 | 100 | – | – | – | 90 | – | – | 90 | 30 | – |
| Cn1nnnc1NC(=O)c1ccc(I)c(CS(C)(=O)=O)c1Cl [Example 1-364] | 80 | 100 | – | – | 100 | – | 100 | 100 | 90 | 90 | – | – | – | – |
| CCn1nnnc1NC(=O)c1ccc(C(F)(F)F)c(C[S+]([O-])CC)c1Cl (stereo not drawn) [Example 2-300] | 100 | 100 | 100 | 100 | 100 | – | – | – | – | – | – | – | – | – |
| CCn1nnnc1NC(=O)c1ccc(C(F)(F)F)c(CSCCOC)c1Cl [Example 2-305] | 100 | 100 | 100 | 100 | 100 | 100 | – | – | – | – | – | – | – | – |
| CCn1nnnc1NC(=O)c1ccc(C(F)(F)F)c(CSCC(F)(F)F)c1Cl [Example 2-311] | 90 | 80 | – | – | 100 | – | 100 | 100 | – | – | – | – | – | – |
| CCn1nnnc1NC(=O)c1ccc(C(F)(F)F)c(C[S+]([O-])CC2CC2)c1Cl (stereo not drawn) [Example 2-315] | 90 | 90 | – | – | 100 | – | 100 | 100 | – | – | – | – | – | – |
| CCn1nnnc1NC(=O)c1ccc(C(F)F)c(C[S+]([O-])CC)c1Cl (stereo not drawn) [Example 2-324] | 90 | 100 | 100 | 100 | 100 | – | – | – | – | – | – | – | – | – |
| CCn1nnnc1NC(=O)c1ccc(I)c(C[S+](C)[O-])c1Cl (stereo not drawn) [Example 2-363] | 100 | – | – | – | 100 | – | 100 | 100 | – | – | – | – | – | – |
| CCn1nnnc1NC(=O)c1ccc(C(F)(F)F)c(CS(=O)(=O)CC)c1Br [Example 2-385] | – | 100 | 100 | 100 | 100 | 90 | – | – | – | – | – | – | – | 100 |
| CCCn1nnnc1NC(=O)c1ccc(C(F)(F)F)c(C[S+](C)[O-])c1SC (stereo not drawn) [Example 3-162] | 90 | 100 | 100 | 100 | 100 | – | – | – | – | – | – | – | – | – |
| C=CCSCc1c(C(F)(F)F)ccc(C(=O)Nc2nnnn2CCC)c1Cl [Example 3-308] | 80 | – | – | – | 100 | – | 80 | 100 | – | – | 90 | – | – | – |
| CCCn1nnnc1NC(=O)c1ccc(C(F)(F)F)c(CSCC2CC2)c1Cl [Example 3-314] | 90 | – | 100 | 100 | 100 | 80 | – | – | – | – | – | – | – | – |
